Measurements published in patent US4058520A, “Aminoalkylthiopyridazine compounds” (The Dow Chemical Company, priority 1976, dated 1977).
Like-named read-outs stand apart in the source and are kept apart here.

Key:
[1] = test system: apple scab; assay: effectiveness against apple scab; type: in vivo; settings: 400 parts per million
[2] = test system: ADP induced aggregation of blood platelets (rat platelet rich plasma); assay: inhibition of ADP induced platelet aggregation in vitro (rat platelet rich plasma, change in optical density; Born); type: cell-based; settings: for IC50: 10 min, read-out: IC50 ADP (concentration at which ADP induced platelet aggregation is inhibited by 50%)
Experimental: Platelet aggregation was initiated in vitro by 0.125 to 0.25 mg/ml of ADP. Rat blood was collected into 3.0% trisodium citrate solution (1:10) by cardiac puncture under methoxyfurane anesthesia. The blood was centrifuged at 120 g for 10 minutes at room temperature and the supernatant platelet rich plasma was removed and diluted with lactated Ringer's solution containing the pyridazine aggregation inhibiting agent (1.0:1.5). Samples of 1.0 ml were pipetted into plastic test tubes and incubated for 10 minutes. Plastic equipment was used for all procedures. The concentration of the pyridazine compound in micromoles inhibiting ADP aggregation by 50% (IC50) was determined using changes in optical density as an indicium of platelet aggregation.
*Concentration in micromoles at which ADP induced platelet aggregation is […]

[3] = test system: rootknot nematode; assay: killing and control of rootknot nematode; type: in vivo; settings: 2.4 pounds per 100 cu. ft. of soil
[4] = test system: tobacco black root rot; assay: fungicide, killing and control of tobacco black root rot; type: in vivo; settings: 25 parts per million
[5] = test system: platelet aggregation / emboli formed in response to ADP; assay: protection of mice from ADP challenge (inclined screen); type: in vivo; settings: of ten mice; 60 mgs per kilogram orally; ADP via tail vein one hour after
Experimental: Emboli formed in the vascular system of mice in response to the administration of ADP cause a stroke-like response that prevents mice from staying on an inclined screen. To illustrate the platelet aggregation inhibition effect of the aminoalkylthiopyridazines, ten mice were dosed orally with 60 mgs per kilogram of body weight of the compound 6-chloro-3-(2-diisopropylamino)ethylthio)pyridazine. One hour after compound administration, the mice were challenged with ADP (0.05 M mole/kg) by injection via the tail vein and placed on an inclined screen. The unprotected control mice were unable to maintain their position on the screen.

[6] = rat platelet rich plasma, 0.125 to 0.25 mg/ml of ADP, incubated 10 minutes

IC50 [2, 6] [µM] | Compound | other results
13800 | c1cc(SCCN2CCOCC2)nnc1SCCN1CCOCC1 [3,6-Bis(2-(4-morpholinyl)ethylthio)pyridazine] | effective against apple scab [1]: 90%
 | Clc1ccc(SCCN2CCOCC2)nn1 [3-Chloro-6-(2-(4-morpholinyl)ethylthio)pyridazine] | IC50 ([2]; Rattus norvegicus, Platelet): 2600 µM; effective in the killing and control of rootknot nematode [3]: 90%
3710 | CCN(CC)CCCSc1ccc(Cl)nn1 [3-Chloro-6-(3-(diethylamino)propylthio)pyridazine] | effective as a fungicide in the killing and control of tobacco black root rot [4]: 100%
2400 | CN(C)CCCSc1ccc(Cl)nn1 [3-Chloro-6-(3-dimethylamino)propylthio)pyridazinium methane sulfonate] | 
140 | CC(C)N(CCSc1ccc(Cl)nn1)C(C)C [6-Chloro-3-(2-(diisopropylamino)ethylthio)pyridazine] | platelet aggregation inhibiting activity (in words) ([2]; Table I data): highly effective; mice protected from the ADP challenge and remaining on the screen [5]: 10 mice

Compound | IC50 [2, 6] [µM] | other results
Clc1ccc(SCCN2CCCCC2)nn1 [3-Chloro-6-(2-(1-piperidinyl)ethylthio)pyridazine] | 3300 | 
Clc1ccc(SCCN2CCCCCC2)nn1 [3-Chloro-6-(2-(hexamethyleneimino)ethylthio)pyridazine] | 2430 | 
Clc1ccc(SCCCN2CCOCC2)nn1 [3-Chloro-6-(3-(4-morpholinyl)propylthio)pyridazine] | 10500 | 
